Data on 8 compounds can be found in patent US5554615A, “Condensed pyrimidine derivative” (Eisai Co., Ltd., priority 1991, dated 1996).

Series [1] has as its target T1, dihydrofolate reductase (DHFR) (Mus musculus, UniProt P00375).
T1 construct: DHFR was prepared from mouse leukemic cell P388; endogenous in cells; host or cells: P388 mouse leukemia cells (enzyme purified from the cells)
T1 sequence (P00375 1-187): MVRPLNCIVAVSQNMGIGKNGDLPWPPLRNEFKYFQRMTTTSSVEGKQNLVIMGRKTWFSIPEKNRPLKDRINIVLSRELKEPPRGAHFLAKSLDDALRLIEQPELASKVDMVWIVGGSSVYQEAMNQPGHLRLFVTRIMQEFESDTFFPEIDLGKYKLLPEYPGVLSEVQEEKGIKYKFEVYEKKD
Briefly: Inhibitory activity against dihydrofolate reductase (DHFR). It counts as biochemical. Here is the method:
DHFR was prepared from mouse leukemic cell P388 according to the method of J. M. Whiteley et al. [see Arch.
A solution of purified DHFR was added to a solution comprising a potassium phosphate buffer solution (pH: 7.5, 75 mM), mercaptoethanol (7.5 mM) and NADPH (0.25 mM) to make up to a total amount of 0.57 mi. Each of the serial dilutions of the compound according to the present invention in an amount of 0.015 ml was added to the mixture prepared above. […] The obtained mixtures were kept at 37° C. for 5 minutes to conduct a reaction.

The subject of series [2] is human rhinopharyngeal cancer cell KB. Kind of series: Inhibitory activity against proliferation of oncocyte, KB (MTT method). It is filed as cell-based. To be noted: 72 h. The method, then:
(§1) Mouse leukemic cell P388, mouse colonic cancer cell Colon 38, human rhinopharyngeal cancer cell KB and human lung cancer cell A549 were used as the oncocytes. […] The microplate was placed in a carbon dioxide incubator containing 5% of CO2 and incubated at 37° C. for one day. The DMSO solution of the compound according to the present invention was diluted with the culture medium to prepare the serial dilutions of the compound. These dilutions were added to the above wells in a predetermined amount. The resulting plate was cultured at 37° C. for 3 days. […] The number of viable cells was determined according to the method of M. C.
(Tetrazolium assays rely on reduction of a dye to a coloured formazan, in cell work by metabolically active cells.)

The subject of series [3] is Mouse P388 leukemia. Briefly: Activity against experimental tumor transplanted to mouse (P388 leukemia). The note with it: for MST / T/C: i.p., once a day for four days; for ratio of the maximum effective dose to the minimum one: tumor bearing mouse (CDF1). It counts as in vivo. The method, then: P388 cells (1×10^6) were inoculated into the abdominal cavity of a female CDF1 mouse of 7 weeks of age and a test drug was administered to the mouse once a day for four days from the next day.
Each test drug was administered intraperitoneally in a state dissolved or suspended in a 4% solution of NaHCO3 in physiological saline, while only a 4% solution of NaHCO3 in physiological saline was administered to a control group. Each control group was composed of ten mice, while each medicated group was composed of six mice. The antitumor activity was evaluated based on the T/C value calculated according to the following formula: [formula]
The measurement was conducted according to the method of R. I. Geran et al. (see Cancer Chemotherapy Reports (Part 3), 31 (1972)).

Series [4] relates to mouse colonic cancer cell Colon 38. Kind of series: Inhibitory activity against proliferation of oncocyte, Colon 38 (MTT method). To be noted: 72 h. It is filed as cell-based. Here is the method: as §1
In series [5] the test system is Mouse leukemic cell P388. Briefly: Inhibitory activity against proliferation of oncocyte, P388 (MTT method). It counts as cell-based. To be noted: 72 h. The method, then: as §1
Series [6] has as its system human lung cancer cell A549. Kind of series: Inhibitory activity against proliferation of oncocyte, A549 (MTT method). It counts as cell-based. The note with it: 72 h. The method, then:
as §1

For series [7], the system named is LX-1. Kind of series: Inhibitory activity against proliferation of oncocyte, LX-1. To be noted: Homo sapiens, 72 h, Table 2-B, 3 days. It is filed as cell-based.
The conditions of series [8]: in words; cited from earlier work.
Series [9] relates to dihydrofolate reductase (DHFR). To be noted: in words; cited from earlier work.
Where [10] appears, read: read-out: 50% cell proliferation-inhibitory concentration (IC50), Table 2-A, KB, 3 days.
Where [11] appears, read: read-out: 50% cell proliferation-inhibitory concentration (IC50), Table 2-A, 3 days.
Setting [12] is: Table 2-B, KB, 3 days, read-out: Proliferation-inhibitory activity IC50.
The mark [13] stands for this setting: Table 2-B, 3 days, read-out: Proliferation-inhibitory activity IC50.

Structures are written as SMILES. Read-outs that look alike come from different tables or passages of the source.

As a reminder, the T/C is the result in the treated group divided by that in the control group, in per cent. For the compound `Nc1nc(N)c2c(ccn2CCCc2ccc(C(=O)N[C@@H](CCC(=O)O)C(=O)O)cc2)n1` [Ex. 2, N-[4-[3-(2,4-Diaminopyrrolo[3,2-d]pyrimidin-5-yl)propyl]benzoyl]-L-glutamat], the IC50 in series [1] is 97 nM; in [2] (setting [10]) it was 9.8 nM; in series [4] (setting [11]), 40 nM; in series [5] (setting [11]), 12 nM; in [6] (setting [11]), 19 nM. Also, the MST in series [3] (Table 3-A, 3.13 mg/kg) is 13.3 ± 0.47; in series [3] (Table 3-A, 6.25 mg/kg), 13.5 ± 0.50; in [3] (Table 3-A, 25.0 mg/kg) it was 14.0 ± 0.71; in series [3] (Table 3-A, 50.0 mg/kg), 14.8 ± 0.83; in [3] (Table 3-A, 100.0 mg/kg) it was 14.8 ± 0.83; in series [3] (Table 3-A, 200.0 mg/kg) it was 16.0 ± 0.82. For the same compound, the T/C in series [3] (Table 3-A, 3.13 mg/kg) was found to be 148%; in series [3] (Table 3-A, 6.25 mg/kg), 150%; in [3] (Table 3-A, 25.0 mg/kg), 156%; in series [3] (Table 3-A, 50.0 mg/kg), 164%; in [3] (Table 3-A, 100.0 mg/kg), 164%; in series [3] (Table 3-A, 200.0 mg/kg), 178%. In addition, the “ratio of the maximum effective dose to the minimum one” value in series [3] is given as “about 60”.
`CC(CCn1ccc2nc(N)nc(N)c21)c1ccc(C(=O)N[C@@H](CCC(=O)O)C(=O)O)cc1` (stereo partly drawn) [Ex. 4, N-[4-[3-(2,4-Diaminopyrrolo[3,2-d]pyrimidin-5-yl)-1-methylpropyl]benzoyl]-L-glutamate]: the IC50 in [1] was 90 nM; in [2] (setting [10]), 31 nM; in [4] (setting [11]), 129 nM; in [5] (setting [11]), 16 nM; in series [6] (setting [11]), 63 nM. For the same compound, in series [3] (Table 3-A, 50.0 mg/kg), the MST was 18.5 ± 1.12. For the same compound, the T/C in series [3] (Table 3-A, 50.0 mg/kg) stood at 185%.
For the compound `CCC(CCn1ccc2nc(N)nc(N)c21)c1ccc(C(=O)N[C@@H](CCC(=O)O)C(=O)O)cc1` (stereo partly drawn) [Ex. 6, N-[4-[3-(2,4-Diaminopyrrolo[3,2-d]pyrimidin-5-yl)-1-ethylpropyl]benzoyl]-L-glutamate], the IC50 in series [1] is 1000 nM; in series [2] (setting [10]), 30 nM; in [4] (setting [11]) it was 340 nM; in series [5] (setting [11]) it was 12 nM; in series [6] (setting [11]), 940 nM.
For the compound `CCC(Cn1ccc2nc(N)nc(N)c21)c1ccc(C(=O)N[C@@H](CCC(=O)O)C(=O)O)cc1` (stereo partly drawn) [Ex. 9, N-[4-[2-(2,4-Diaminopyrrolo[3,2-d]pyrimidin-5-yl)-1-ethylethyl]benzoyl]-L-glutamate], the IC50 in series [1] was determined as 30 nM; in series [2] (setting [10]), 32 nM; in series [4] (setting [11]) it was 39 nM; in series [5] (setting [11]), 17 nM; in series [6] (setting [11]), 100 nM. Further, the MST in series [3] (Table 3-A, 0.78 mg/kg) worked out at 16.3 ± 1.02; in series [3] (Table 3-A, 3.13 mg/kg) it was 14.8 ± 0.83; in series [3] (Table 3-A, 50.0 mg/kg), 15.0 ± 0.71. Also, the T/C in [3] (Table 3-A, 0.78 mg/kg) was 181%; in [3] (Table 3-A, 3.13 mg/kg) it was 164%; in series [3] (Table 3-A, 50.0 mg/kg), 167%. For the same compound, in series [3], the “ratio of the maximum effective dose to the minimum one” value is recorded as “about 60”.
For `Nc1nc(N)c2c(n1)CCC2CCc1ccc(C(=O)N[C@@H](CCC(=O)O)C(=O)O)cc1` (stereo partly drawn) [Ex. 103, N-{4-[2-(2,4-diamino-6,7-dihydro-5H-cyclopenta[d]pyrimidin-5-yl)ethyl]benzoyl}-L-glutamic], the IC50 in series [1] came out at 72 nM; in series [2] (setting [12]), 3.8 nM; in [4] (setting [13]), 8.9 nM; in series [5] (setting [13]), 7.7 nM; in series [6] (setting [13]), 9.8 nM. The T/C in series [3] (Table 3-B, 0.78 mg/kg) is given as 129%; in series [3] (Table 3-B, 3.13 mg/kg), 135%; in [3] (Table 3-B, 50 mg/kg), 148%.
For the compound `Nc1nc(N)c2c(n1)CCC2CCCc1ccc(C(=O)N[C@@H](CCC(=O)O)C(=O)O)s1` (stereo partly drawn) [Ex. 105, N-{5-[3-(2,4-diamino-6,7-dihydro-5H-cyclopenta[d]pyrimidin-5-yl)propyl]-2-thenoyl}-L-glutamic acid], the IC50 in series [1] came out at 4 nM; in [2] (setting [12]), 0.92 nM; in series [7], 0.67 nM; in [4] (setting [13]) it was 0.87 nM; in series [5] (setting [13]) it was 1.8 nM; in series [6] (setting [13]), 2.4 nM. Moreover, the T/C in [3] (Table 3-B, 0.05 mg/kg) was determined as 126%; in [3] (Table 3-B, 0.20 mg/kg) it was 151%; in [3] (Table 3-B, 0.78 mg/kg) it was 176%; in series [3] (Table 3-B, 3.13 mg/kg), 151%.
For the compound `Nc1nc(N)c2c(n1)CCC2CCCc1ccc(C(=O)N[C@@H](CCC(=O)O)C(=O)O)cc1` (some centres unmarked) [Ex. 108], the IC50 was 1.6 nM in series [2] (setting [12]), 4.1 nM in [4] (setting [13]), 2.7 nM in [5] (setting [13]) and 9.3 nM in [6] (setting [13]). The T/C in series [3] (Table 3-B, 0.20 mg/kg) was found to be 133%; in series [3] (Table 3-B, 0.78 mg/kg), 150%; in [3] (Table 3-B, 3.13 mg/kg) it was 170%.
Regarding `CN(Cc1cnc2nc(N)nc(N)c2n1)c1ccc(C(=O)N[C@@H](CCC(=O)O)C(=O)O)cc1` [MTX, Methotrexate, reference compound], the IC50 amounted to 11 nM in series [2] (setting [12]); 20 nM in series [2] (read-out: 50% cell proliferation-inhibitory concentration (IC50)); 28 nM in series [4] (setting [13]); 60 nM in series [4] (setting [11]); 22 nM in series [5] (setting [13]); 16 nM in [5] (setting [11]). In addition, the figures for the IC50 in [6] (setting [13]) and in series [6] (setting [11]) were 88 nM and 80 nM, respectively. The potent adverse effects result in series [8] is “bone marrow suppression and degradation of the intestinal epithelium”. Further, the “inhibitory activity against dihydrofolate reductase (DHFR)” value in series [9] is “high inhibitory activity”.
